{"source": "PubChem BioAssay AID463211", "about": "(Broad Institute, 2010)", "test_system": "HeLa viability, ATP luminescence (CellTiterGlo), 48 h", "assay": "HeLa cell cytotoxicity, dose response, cytotoxicity control for LANA inhibitor project, luminescence (AID 463211)", "note": "Calls of active or inactive are those of the source.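 How the source made its calls: active means loss of HeLa cell viability with AC50 at most tenfold above the top tested dose; inconclusive means flat fit with signal drop between 30% and 70%, or poor fit; inactive means AC50 more than tenfold above top tested dose.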"}
{"smiles": "Cc1ccc(Cl)cc1N1CCN(C(=O)C2CCN(S(C)(=O)=O)CC2)CC1", "values": [{"measurement": "AC50", "value": "> 35 µM (inactive)"}]}
{"smiles": "Cc1cccc(N2C(=O)c3cccc4c(N(C)CCO)ccc(c34)C2=O)c1", "values": [{"measurement": "AC50", "value": "> 35 µM (inactive)"}]}
{"smiles": "COc1ccc(C2C=C(c3ccc(Br)cc3)Nc3nc(NS(C)(=O)=O)nn32)cc1", "note": "(centres undefined)", "values": [{"measurement": "AC50", "value": "> 35 µM (inactive)"}]}
{"smiles": "Cc1cc(C)cc(NS(=O)(=O)c2ccc3c(c2)C(C)(C)C(=O)N3C)c1", "values": [{"measurement": "AC50", "value": "> 35 µM (inactive)"}]}
{"smiles": "CCCCCCn1c(=O)[nH]c2nc3cc(N)ccc3nc2c1=O", "values": [{"measurement": "AC50", "value": "> 35 µM (inactive)"}]}
{"smiles": "COc1ccc2ccccc2c1C(O)c1nccn1C", "note": "(centres undefined)", "values": [{"measurement": "AC50", "value": "> 35 µM (inactive)"}]}
{"smiles": "CN(C)/C=C1\\C=C2C(=O)c3ccccc3N2C1=O", "values": [{"measurement": "AC50", "value": "> 35 µM (inactive)"}]}
{"smiles": "CC(=O)Nc1cccc(N)c1", "values": [{"measurement": "AC50", "value": "> 35 µM (inactive)"}]}
{"smiles": "O=C(CCCN1C(=O)c2cccc3cccc(c23)C1=O)N1CCN(c2ccccc2)CC1", "values": [{"measurement": "AC50", "value": "> 35 µM (inactive)"}]}
{"smiles": "O=c1ccc2c(-c3ccccc3)c3ccc(O)cc3oc-2c1", "values": [{"measurement": "AC50", "value": "> 35 µM (inactive)"}]}
{"smiles": "CC(=O)Oc1ccc2c(c1)Oc1cc(OC(C)=O)ccc1C21OC(=O)c2ccccc21", "values": [{"measurement": "AC50", "value": "> 35 µM (inactive)"}]}
{"smiles": "COc1ccc2c3c(cccc13)C(=O)CC2", "values": [{"measurement": "AC50", "value": 22.3, "unit": "µM"}]}
{"smiles": "COc1cccc2c1C(=O)c1c(O)c3c(c(O)c1C2=O)CC(O)(C(=O)CO)CC3OC1CC(N)C(O)C(C)O1", "note": "(centres undefined)", "values": [{"measurement": "AC50", "value": 4.4, "unit": "µM"}]}
{"smiles": "CC(C)CSC1=NSC2=NC(=O)/C(=C\\c3coc4ccccc4c3=O)C(=N)N12", "values": [{"measurement": "AC50", "value": "> 35 µM (inactive)"}]}
{"smiles": "O=C1c2ccccc2-c2onc3ccc(NCCCn4ccnc4)c1c23", "values": [{"measurement": "AC50", "value": 32.4, "unit": "µM"}]}
{"smiles": "Cn1nc(-c2ccccc2)c2nc3ccccc3nc21", "values": [{"measurement": "AC50", "value": "> 35 µM (inactive)"}]}
{"smiles": "Cc1n[nH]c(C)c1N1C(=O)c2cccc3c(N4CCCCCC4)ccc(c23)C1=O", "values": [{"measurement": "AC50", "value": "> 35 µM (inactive)"}]}
{"smiles": "CC(C)(C)C1(C)OC(=O)C(=Cc2ccc(OCC(=O)Nc3ccccc3)cc2)C(=O)O1", "note": "(centres undefined)", "values": [{"measurement": "AC50", "value": "> 35 µM (inactive)"}]}
{"smiles": "Cc1nn(C)c(C)c1N1C(=O)c2cccc3c(N)ccc(c23)C1=O", "values": [{"measurement": "AC50", "value": "> 35 µM (inactive)"}]}
{"smiles": "O=C1c2ccccc2-c2onc3ccc(NCc4ccco4)c1c23", "values": [{"measurement": "AC50", "value": 28.5, "unit": "µM"}]}
{"smiles": "CC1=NCCc2c1[nH]c1cc(O)ccc21", "values": [{"measurement": "AC50", "value": "> 35 µM (inactive)"}]}
{"smiles": "Cc1cc(C)c2nc(C(F)(F)F)nc(NCCCN3CCCC3=O)c2c1", "values": [{"measurement": "AC50", "value": "> 35 µM (inactive)"}]}
{"smiles": "Cc1cc2nc3c(=O)n(Cc4ccccc4)c(=O)[nH]c3nc2cc1N", "values": [{"measurement": "AC50", "value": "> 35 µM (inactive)"}]}
{"smiles": "O=C1CCN2C=Nc3cccc4ccc1c2c34", "values": [{"measurement": "AC50", "value": 8.08, "unit": "µM"}]}
{"smiles": "CCCCCCCCCCCCCCCC[n+]1ccc(/C=N/O)cc1", "values": [{"measurement": "AC50", "value": 11.9, "unit": "µM"}]}
{"smiles": "O=S(=O)(Nc1cc(Cl)ccc1N1CCOCC1)c1ccccc1Cl", "values": [{"measurement": "AC50", "value": "> 35 µM (inactive)"}]}
{"smiles": "Cc1nn(C)cc1N1C(=O)c2cccc3c(N)ccc(c23)C1=O", "values": [{"measurement": "AC50", "value": "> 35 µM (inactive)"}]}
{"smiles": "CC(=O)Nc1ccc(-c2cn3ccsc3n2)cc1", "values": [{"measurement": "AC50", "value": "> 35 µM (inactive)"}]}
{"smiles": "CC1Cc2ccccc2N1C(=O)CSc1ncccn1", "note": "(centres undefined)", "values": [{"measurement": "AC50", "value": "> 35 µM (inactive)"}]}
